Read-outs that look alike come from different tables or passages of the source. Where a SMILES comes first, the peptide text is derived from it. Bridges are numbered along the chain shown (N, C = ends). [ ]: non-standard residue; d: D form.
How the values were obtained:
[1] = system: mechanosensitive channel (MSC); settings: cited from earlier work
ferrets = test: Cardiovascular hemodynamics and EKG after IV injection in telemetered animals; type: in vivo, ferret; settings: IV 0.2 to 5 mg/kg
Experimental: In another study, Cardiovascular hemodynamics and EKG was assessed after IV injection of D-GsMTx4 into telemetered free ranging ferrets in 4 cohorts of 3 animals over concentration ranging from 0.2 to 5 mg/kg at Covance Drug Development Company. This study was one of the main recommendations given us by the TACT advisory panel in Spring 2011. Particular attention was given to QT intervals, arterial pressure (mean, systolic and diastolic) and core temperature for 24 hours following IV injection.

mdx mice = test: Toxicity with daily subQ dosing for 30 days; type: in vivo, mouse; settings: 5 mg/kg subQ daily, 30 days (month long)
Experimental: This example describes toxicity studies with GsMTx-4. In one experiment, D-GsMTx4 was administered to 60 mdx mice and controls by daily subQ dosing at 5 mg/kg for 30 days at the Washington D.C. Wellstone center.

rats = test: Acute IV toxicity, observed for 1 hour, rats; type: in vivo, rat
Experimental: In another experiment, rats were IV injected with D-GsMTx4 at 9, 3, and 1 mg/kg concentrations and observed for 1 hour at Covance Drug Development Company. There were 3 rats injected for 3 and 1 mg/kg and 1 rat injected for 9 mg/kg concentration.

mice = test: Acute IV toxicity, observed for 1 hour, mice; type: in vivo, mouse
Experimental: In another experiment, mice were IV injected with D-GsMTx4 at 9, 5, 3, and 1 mg/kg concentrations and observed for 1 hour at Covance Drug Development Company. There were 3 mice injected per concentration. […] All mice appeared normal by 1 hour.

neurite = test: Neurite initiation and neurite length; type: cell-based
Source text: The peptide GsMTx4 of the present invention can be prepared for pharmaceutical use by incorporation with a pharmaceutically acceptable carrier or diluent. The peptide can be formulated into tablets, capsules, caplets and the like. Suitable carriers for tablets include calcium carbonate, starch, lactose, talc, magnesium stearate and gum acacia. The peptide can also be formulated for oral, parenteral or intravenous administration in aqueous solutions, aqueous alcohol, glycol or oil solutions or emulsions. The peptide can also be formulated for inhaling by encapsulating to facilitate alveolar absorption as has been done for insulin (Inhale Therapeutic Systems, San Carlos, Calif., inhale.com). Pharmaceutical compositions suitable for such routes of administration are well known in the art. For example, suitable forms and compositions of pharmaceutical preparations can be found in Remington's Pharmaceutical Science, 1980, 15^thed. Mack Publishing Co., Easton, Pa. Thus, the peptide GsMTx4 can be administered orally, subcutaneously, parenterally, intravenously, intramuscularly or intranasally. The peptide may also be applied to medical devices that will come into contact blood. Both L and D enantiomers of GsMTx4's and its variants can be used for the present invention. We have previously shown that both L- and D-GsMTx4 block mechanosensitive channel (MSC) activity. Although, we have noted differences in the effects of these enantiomers, both forms are effective. For example, we have observed that the ability of the mirror image form (D-enantiomer) to inhibit mechanically activated ion channels is similar to the wild type peptide (L-form) (Suchyna et al 2004). […] Thus, both L and the D forms can be used in the present invention.

[2] = Tissue distribution over 24 hrs after a single dosing; type: in vivo, mouse; settings: for Tmax: mouse, blood, read-out: time of peak blood concentration
Experimental: This example describes the tissue distribution of GsMTx-4. Mice were dosed with D-GsMTx4 by three methods of administration and sacrificed at different time points over 24 hrs by Covance Drug Development Company. Tissues were harvested and sent frozen to Custom Biologics Company for concentration analysis. There were three animals per cohort and 7 time points distributed approximately logarithmically over 24 hours following a single dosing. We followed the distribution of peptide for three routes of administration −5 mg/kg IV, 50 mg/kg subQ and 50 mg/kg GI lavage. […] We sampled 7 different tissues including EDL muscle, diaphragm, brain, bladder, heart, liver and blood. […] Under both methods the peptide peaked in all tissues at about 2 hrs and plateaued for the 24 hr experiment duration. […] The distribution followed a pattern reflecting the relative capillary permeability of the tissue. […] Since the peptide has a strong partition coefficient to lipids, the mean concentration in the tissues is much lower than that in the membrane, the site of action.

[3] = system: LPA-induced cation conductance in human SS red cells; test: On-cell patch clamp of LPA-induced cation conductance; type: cell-based; settings: 5 μM; Na methanesulfonate in bath and pipette, -Vp=-50 mV; n=8
Source text: On-cell patch clamp: Borosilicate pipettes (Corning 7052) pulled with a Narishige two stage puller or a Sutter P97 puller and fire-polished to resistances of 10-20 MΩ were front-filled and then backfilled. Symmetric bath and pipette solutions for studies of seal resistance stability during reversibility tests of the deoxygenation-activated conductance in SAD mouse red cells were (in mM) 140 NaCl, 4 KCl, 1 CaCl2, 1 MgCl2, 10 Na HEPES, pH 7.4. These conditions yielded tight seals in 13% of patch attempts on SAD cells. For study of deoxygenation-induced monovalent cation permeation in the absence of bath Ca^2+ and Mg^2+ recorded in SAD and Berkeley mouse cells and in human cells, symmetric bath and pipette solutions contained (in mM) 150 Na methanesulfonate, 10 Na EDTA, and 10 Na HEPES, pH 7.4. These conditions yielded tight seals in 16% of patch attempts on SAD mouse red cells, 26% of attempts on Berkeley mouse cells, and 30% of attempts on human SS cells. For study of Ca^2+ permeation in human SS cells, bath and pipette solutions contained (in mM) 100 CaCl2, 10 Na HEPES, pH 7.4. These conditions yielded tights seals on 44% of attempts. For all conditions tested in human red cells, 70% of tight seals were sustained through the solution change accompanying deoxygenation to allow recording of current activity.
On-cell patch currents were recorded with the Axopatch 1-D amplifier (Axon Instruments/Molecular Devices, Sunnyvale, Calif.). Holding potential was −Vp=−50 mV (expressed as the negative of the pipette potential (e.g., equivalent to the intracellular potential with respect to the pipette). To determine current-voltage relationships (I-V curves) in Fetchex or Clampex (PCLAMP, Axon Instruments), the realtime control window in gap-free mode was used to record current traces of 10-30 sec duration at holding potentials ranging from −100 to +100 mV, in 25 mV increments. The bath reference electrode was a silver chloride wire with a 3 M KCl agar bridge. Data was filtered at 500 Hz, digitized at 2 kHz by Clampex, and analyzed offline by Fetchan and Pstat or by Clampfit subroutines of PCLAMP. Holding potentials in on-cell patch experiments were expressed as −Vp, the negative of the pipette potential.
Deoxygenation-activated flickering cation conductance observed in human SS cells contrasted with the prolonged channel openings produced by 5 μM LPA (FIG. 10A). In SS cells, LPA increased NPo […], from 0.04±0.03 to 0.82±0.18 (n=8, p<0.001; Na methanesulfonate in bath and pipette, −Vp=−50 mV; FIG. 10B). LPA-induced cation conductance was 96% inhibited by 100 uM dipyridamole in the pipette, and 97% inhibited by 1 μM GsMTx-4 in the pipette (both n=4).

human SS red cells = test: Fluo-3 fluorescence measurement of [Ca2+]i after LPA; type: cell-based; settings: 5 μM; 75 SS red cells
Source text: Fluorescence measurements of cytosolic [Ca^2+] ([Ca^2+]i): After removal of plasma and buffy coat by aspiration, human or mouse red cells were washed three times at room temperature and suspended in modified Hank's solution containing (in mM), 137 NaCl, 5.4 KCl, 1 CaCl2, 1 MgCl2, 0.8 NaK phosphate, 5.6 glucose, and 10 Na HEPES, pH 7.4. Dilute cell suspensions were settled on polylysine-coated coverslips forming the bottom of an open perfusion chamber (2.5 cm diameter, 1 cm depth) and washed again 3 times.
Measurement of relative changes in [Ca^2+]i by Fluo-3 fluorescence emission was previously validated in intact human (Yang et al. 2000, Blood, 95(7):2421-2425; Andrews et al. 2002, Blood, 199(9):3392-3399) and mouse red cells (Akel et al. 2007, Amer. J. Physiol., 292(5):C1759-1767). Attached red cells were loaded in the dark with the fluorescent non-ratiometric Ca^2+ indicator Fluo-3-AM (10 μM, Molecular Probes, Eugene, Oreg.) at 37° C. for 1 hr, then washed and incubated 15 min further to allow de-esterification of intracellular dye. […] Fluorescence emission (proportional to [Ca^2+]i) from a 535ds20 bandpass filter was collected from all attached single cells within the arbitrarily selected visual field. […]

KCa3.1 = molecular target: T1, KCa3.1 (Homo sapiens, UniProt O15554); settings: 50 nM; cited from earlier work
T1 construct: KCa3.1 activity stimulated in intact human AA cells by 1 μM A23187; endogenous in cells; host or cells: intact human AA red blood cells
T1 sequence (O15554 whole entry): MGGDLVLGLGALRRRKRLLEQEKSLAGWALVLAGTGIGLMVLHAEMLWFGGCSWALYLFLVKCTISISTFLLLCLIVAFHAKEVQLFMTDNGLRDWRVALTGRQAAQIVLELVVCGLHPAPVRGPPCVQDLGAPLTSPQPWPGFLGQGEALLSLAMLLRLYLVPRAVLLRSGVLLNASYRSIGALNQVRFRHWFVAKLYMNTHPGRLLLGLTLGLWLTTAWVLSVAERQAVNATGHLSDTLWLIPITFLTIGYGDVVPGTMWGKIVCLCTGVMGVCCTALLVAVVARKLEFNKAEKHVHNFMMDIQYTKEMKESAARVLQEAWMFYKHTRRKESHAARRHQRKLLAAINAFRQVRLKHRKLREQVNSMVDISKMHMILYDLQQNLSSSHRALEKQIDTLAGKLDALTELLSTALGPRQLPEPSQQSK

[4] = molecular target: deoxygenation-induced Ca2+-permeable cation conductance (Psickle-like)
[5] = molecular target: lysophosphatidic acid (LPA)-activated cation-permeable channel in human SS red cells

## CC(C)C[C@H]1NC(=O)[C@H](NC(=O)CN)CSSC[C@H]2NC(=O)[C@H]3CSSC[C@H](C(=O)N[C@H](CC(N)=O)C(=O)N[C@H](Cc4ccccc4)C(=O)N[C@H](CO)C(=O)N[C@H](Cc4ccccc4)C(N)=O)NC(=O)[C@@H](CC(C)C)NC(=O)[C@@H](CCCCN)NC(=O)[C@@H](Cc4ccccc4)NC(=O)[C@@H](CC(C)C)NC(=O)[C@@H](CCCCN)NC(=O)[C@@H](CO)NC(=O)[C@@H](CSSC[C@@H](NC(=O)[C@@H](CCCCN)NC(=O)[C@@H](Cc4c[nH]c5ccccc45)NC(=O)[C@@H](Cc4c[nH]c5ccccc45)NC(=O)[C@@H](Cc4ccccc4)NC(=O)[C@@H](CCC(=O)O)NC1=O)C(=O)N[C@H](CC(N)=O)C(=O)N1CCC[C@@H]1C(=O)N[C@H](CC(N)=O)C(=O)N[C@H](CC(=O)O)C(=O)N[C@H](CC(=O)O)C(=O)N[C@H](CCCCN)C(=O)N3)NC(=O)[C@@H](CCCCN)NC(=O)[C@@H](CC(C)C)NC(=O)[C@@H](CCCCN)NC(=O)[C@H]1CCCN1C(=O)[C@@H](CCCNC(=N)N)NC2=O [D-GsMTx4] (H-G[dC][dL][dE][dF][dW][dW][dK][dC][dN][dP][dN][dD][dD][dK][dC][dC][dR][dP][dK][dL][dK][dC][dS][dK][dL][dF][dK][dL][dC][dN][dF][dS][dF]-NH2; disulfide 2-17, 9-23, 16-30 (inferred); N-terminus and C-terminus assumed)
[1]; Suchyna et al 2004
  ability to inhibit mechanically activated ion channels compared with wild type peptide (L-form): similar
[1]; previously shown
  effect on mechanosensitive channel (MSC) activity: block
ferrets
  behavior changes: no behavior changes
ferrets; 24 hours
  changes in QT intervals, arterial pressure and core temperature: No statistically significant changes
Mdx mice
  toxicity: No apparent toxicity
rats; IV 9 mg/kg (highest dose), rat, remained for the 60 minute test duration
  clinical signs: slow respiration, refusal to ambulate, decreased muscle tone
rats; IV 9, 3 and 1 mg/kg, rats, 1 hour
  mortality: No animals died
mice; IV 9 mg/kg (highest dose), mice
  clinical signs: slight tremors and decreased activity
mice; IV 9 mg/kg, mice
  duration of clinical signs after injection: ~0.5 h
mice; IV 9, 5, 3 and 1 mg/kg, mice, 1 hour
  mortality: No animals died
mice; IV, all doses
  time by which all mice appeared normal: ≤ 1 h
neurite
  effect on neurite length: no significant effect
  neurite initiation: did not stimulate
[2]; 5 mg/kg IV, 50 mg/kg subQ, 50 mg/kg GI lavage, 24 hour
  mortality: No animals died
[2]; 5 mg/kg IV, mice
  time of peak in all tissues: about 2 hrs
  Tmax: ≤ 2 h
[2]; 50 mg/kg GI lavage, mice
  concentration in tissues: almost no measurable concentration
[2]; 50 mg/kg subQ, mice
  time of peak in all tissues: about 2 hrs
[2]; IV and subQ, 7 tissues
  distribution pattern among tissues: liver received the most while brain received the least
[2]; IV and subQ, 24 hr
  course of tissue concentration after peak: plateaued
[2]; IV and subQ, over 24 hrs
  course of blood concentration after peak: decreased exponentially
[2]; sc, 50 mg/kg subQ, mice
  Tmax: ≤ 2 h
[2]; suggested by the distribution data
  effective half life of bound drug: very long

## lysophosphatidic acid [LPA]
[3]
  NPo after exposure: 0.82±0.18
  increase in NPo: 16 fold
Human SS red cells
  effect on [Ca2+]i (Fluo-3 fluorescence): elevated

## charybdotoxin
KCa3.1
  effect on A23187-stimulated 86Rb+ influx: completely inhibited

## Grammastola spatulata mechanotoxin 4 (GsMTx4) (peptide)
[4]
  NPo of deoxygenation-induced cation conductance, on-cell patch on human SS red cells, Na methanesulfonate in pipette and bath: 0.003 NPo
[5]
  LPA-induced cation conductance (NPo), on-cell patch on human SS red cells: 97 % inhibited
